The pKa is the negative logarithm of the acid dissociation constant.

The text below walks through data of patent EP3479863B1, “COMPOSITIONS, METHODS AND ARTICLES CONCERNING PHARMACEUTICAL NITRIC OXIDE AND CONTROLLED PATIENT DELIVERY SYSTEMS THEREOF” (Mallinckrodt Pharmaceuticals Ireland Limited, priority 2010, dated 2012).

The conditions of series [1]: two lines for one acid = two pKa values; cited from earlier work.
Series [2] can be described thus: NO release from powdered acids hit by single 50 nL sodium nitrite droplets, measured with NO analyzer. The following applies: Example 2; for Time to 90% AUC: 7 mg finely ground powder per well, 50 nL droplet of 6M NaNO2, air flow 500 mL/minute; for NO release kinetics: comparison in words, FIG. 12 and FIG. 13. As for the experimental part: Powdered acids of different acidity (TABLE 1) and reducing capacity, or mixtures at equal weight ratios thereof, were tested for their ability to promote NO release from concentrated aqueous solutions of sodium nitrite. Acids were finely ground and about 5-7 mg placed into wells of a reaction plate contained within a reaction chamber equipped with a microvalve capable of dispensing single 50 nL liquid droplets of sodium nitrite into each well. The reaction chamber was continuously flushed with air at defined flow rates and the NO concentration in the air measured with a […]® NO Analyzer 280i. When NO concentrations exceeded the measurement range of the NO analyzer, the air stream was diluted with a nitrogen stream of defined flow rate prior to measurement and the measured NO concentration corrected for the dilution factor. 50 ml of 6M NaNO2 stock solution was prepared and degassed for 15 minutes. 10 mL of the stock solution was filled into a liquid reservoir feeding a microvalve capable of dispensing single 50 nL liquid droplets sequentially into each of six wells of a reaction plate contained within a reaction chamber. The air flow rate through the reaction chamber was set to 500 mL/minute. The air flow was diluted with nitrogen gas to a flow rate of 1586 mL/minute to allow measurement of the entire NO peak with a […]® NO Analyzer 280i. The NO analyzer was calibrated using a 45 ppm NO calibration gas prior to the experiment. […] The microvalve fired a 50 nL droplet into each well. The timecourse of NO production was measured with the NO Analyzer. The following time parameters were analyzed for each NO peak: AUC, time to reaching 90% of the AUC, and maximum peak NO concentration.

The conditions of series [3]: cited from earlier work.
The nature of series [4]: NO release from croconic acid coated MAGNA nylon tape versus particulate croconic acid, single 50 nL droplets. The following applies: single 50 nL droplets of 6M NaNO2. As for the experimental part: 10 grams of croconic acid were milled for 5 minutes using a bench top micromill and sifted through a 32 µm sieve. 100 mg of milled acid were suspended into 1 mL of absolute MeOH supplemented with 2% v/v cornstarch and 0.05% v/v glycerol. The yellow-orange suspension was spread evenly as a single coat using an acid resistant brush onto a 5 mm by 18 inch MAGNA® hydrophobic nylon tape of 1 .2 µm pore size. The tape was air-dried for 30 min by suspending it horizontally at both ends. The croconic acid formed a dark yellow slightly powdery coating on top of the nylon membrane; the average surface density of croconic acid deposited on the tape was 2.66 mg/cm^2.
NO release in response to single 50 nL droplets of 6M NaNO2 is shown in FIG 14 and TABLE 3, compared to the NO release from croconic acid powder. The croconic acid coated tape produced 85.3% of the NO compared to the bulk croconic acid powder, based upon the AUC.
Particulate croconic acid of particle size < 20µm produced by dry-milling for 45 min was formulated as 500 mg/ml suspension in USP ethanol by 10 min of sonication with additives of 0.05% v/v glycerol and 2% v/v starch and coated onto MAGNA® hydrophobic nylon tape in two sequential air-dried coats, yielding an average croconic acid surface density of 4.42 mg/cm^2.
NO release in response to single 50 nL droplets of 6M NaNO2 is shown in FIG. 15 and TABLE 4, compared to the NO release from particulate croconic acid. The croconic acid coated tape yielded 93.9% of the NO compared to the bulk croconic acid powder.
In another example, the procedure of the preceding paragraph was repeated by suspending 350 mg of milled croconic acid in 1 mL of isopropanol and preparing two sequential air-dried coats on the MAGNA® hydrophobic nylon strip yielding a croconic acid deposited as a dark yellow coating on the nylon membrane. NO release in response to single 50 nL droplets of 6M NaNO2 is shown in FIG. 16 and TABLE 5, compared to the NO release from particulate croconic acid. The croconic acid coated tape yielded 84.7% of the NO compared to the bulk croconic acid powder.

On to `O=C(O)C(Cl)(Cl)Cl` [trichlomacetic acid], for which, in series [1], the pKa is given as 0.77.

As for `O=C1O[C@H]([C@@H](O)CO)C(O)=C1O` [Ascorbic Acid, reference compound], the pKa in series [1] was 11.6. For the same compound, in series [2], the “Time to 90% AUC” value was 13.98 s; the NO release kinetics entry is “slow, protracted and irregular”.

In the case of `O=C(O)C(O)c1c(F)c(F)cc(F)c1F` (centres unmarked) [2,3,5,6-Tetrafluoromandelic acid], the pKa in series [1] is <<3.4.

nonylphenol ethoxylate [NP-9]: the surface tension in series [3] (0.1 % v/v aqueous solution at 25°C) is recorded as 30 Dynes/cm. For the same compound, the viscosity in series [3] (at 25°C) is 243 cp.

In the case of `O=C(O)C(O)c1ccccc1F` (centres unmarked) [2-Fluoro-mandelic acid], the pKa in series [1] is recorded as below 3.4.

For the compound Croconic Acid, the “Time to 90% AUC” value in series [4] (Example 4A, suspension in MeOH, single coat, 1.2 µm pore size tape) came to 0.79 s; in series [4] (Example 4B, particle size < 20µm, suspension in USP ethanol, two coats) it was 0.85 s; in series [4] (Example 4C, suspension in isopropanol, two coats), 0.77 s; in series [2] it was 1.1 s. For the same compound, the NO release kinetics result in series [2] was “superior NO release kinetics over ascorbic acid while releasing similar quantities of NO”.

Consider `O=C(O)C(O)c1ccccc1` (centres unmarked) [Mandelic acid], for which the pKa in series [1] was 3.37.
